Data: BindingDB's records for doi:10.1021/jm00088a013 (University of Kansas, 1992)

Target: Adenosylhomocysteinase (Bos taurus)
Assay: Inhibitory activity against bovine liver S-adenosyl-L-homocysteine hydrolase (AdoHcy) rate of inactivation by NpcA

Row | Ki | Structure (SMILES)
1 | 5020 nM | C[C@@H]1C[C@@H](n2cnc3c(N)ncnc32)[C@H](O)[C@@H]1O
2 | 49 nM | Nc1ncnc2c1ncn2[C@@H]1C=C[C@@H](O)[C@H]1O
3 | 27 nM | C[C@H]1C[C@@H](n2cnc3c(N)ncnc32)[C@H](O)[C@@H]1O
4 | 12 nM | Nc1ncnc2c1ncn2[C@@H]1CC[C@@H](O)[C@H]1O [(1R,2S,3R)-3-(6-amino-9H-purin-9-yl)cyclopentane-1,2-diol]

The next lines start with the compound.

Row | Structure (SMILES) | Ki
5 | CC[C@H]1C[C@@H](n2cnc3c(N)ncnc32)[C@H](O)[C@@H]1O | 586 nM
6 | Nc1ncnc2c1ncn2[C@@H]1C[C@H](c2ccccc2)[C@@H](O)[C@H]1O | 67600 nM
7 | C=C[C@H]1C[C@@H](n2cnc3c(N)ncnc32)[C@H](O)[C@@H]1O | 22 nM
8 | CC1=C[C@@H](n2cnc3c(N)ncnc32)[C@H](O)[C@@H]1O | 9150 nM
